Results from PubChem BioAssay (NCI).
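Each compound was tested at five concentrations against cells in 96-well plates for 48 hours. Abbreviation: GI50, concentration required for 50% inhibition of growth. TGI denotes the concentration required for complete inhibition of growth.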

Columns and labels:
Assay in all cases: NCI-60 cell line screen, 48 h
U251 CNS = test system: U251 CNS
SNB-19 CNS = test system: SNB-19 CNS
CCRF-CEM leukemia = test system: CCRF-CEM leukemia
SK-OV-3 ovarian = test system: SK-OV-3 ovarian
UACC-62 melanoma = test system: UACC-62 melanoma
SF-268 CNS = test system: SF-268 CNS
A498 renal = test system: A498 renal
SN12C renal = test system: SN12C renal
SR leukemia = test system: SR leukemia
T-47D breast = test system: T-47D breast

Row | SMILES | TGI (U251 CNS) [µM] | TGI (SNB-19 CNS) [µM] | TGI (CCRF-CEM leukemia) [µM] | TGI (SK-OV-3 ovarian) [µM] | TGI (UACC-62 melanoma) [µM] | TGI (SF-268 CNS) [µM] | TGI (A498 renal) [µM] | TGI (SN12C renal) [µM] | GI50 (SR leukemia) [µM] | TGI (SR leukemia) [µM] | GI50 (T-47D breast) [µM] | TGI (T-47D breast) [µM] | GI50 (U251 CNS) [µM] | GI50 (SNB-19 CNS) [µM] | GI50 (CCRF-CEM leukemia) [µM] | GI50 (SK-OV-3 ovarian) [µM] | GI50 (UACC-62 melanoma) [µM] | GI50 (SF-268 CNS) [µM] | GI50 (SN12C renal) [µM] | GI50 (A498 renal) [µM]
1 | Cc1ccc(S(=O)(=O)NC(Cc2ccccc2)C(=O)CCl)cc1 (stereo unspecified) | 29.7 | 32.1 | > 100 | 47 | 26.4 | 31.4 | 31.7 | 25.3 | – | – | – | – | – | – | – | – | – | – | – | –
2 | COc1nc2c(c(=O)n1C)CN(c1ccccc1)C(=O)CN2C | > 100 | > 100 | > 100 | > 100 | > 100 | > 100 | – | > 100 | 17 | > 100 | 11.1 | > 100 | 78.9 | 60.4 | > 100 | > 100 | 45.8 | 36.8 | 56.4 | –
3 | CCCCSC1CCSc2c1ccc1ccccc21 (stereo unspecified) | > 100 | > 100 | – | > 100 | > 100 | – | – | – | – | > 100 | – | – | – | – | – | – | – | – | – | –
4 | CCCC[C@H](CCc1ccccc1)N(C(=O)OC)N1CCC[C@H]1COC | 29.1 | 30.4 | 31.3 | 60.2 | 30.9 | 43 | 34.6 | 32.7 | – | > 100 | – | – | – | – | – | – | – | – | – | –
5 | CC[C@H](C)[C@H](NC(=O)c1ncccn1)C(=O)N(C)[C@H](C[C@@H](OC(C)=O)c1nc(C(=O)N[C@@H](Cc2ccccc2)C[C@H](C)C(=O)OC)cs1)C(C)C | > 25 | > 25 | 7.19 | > 25 | > 25 | > 25 | 17.6 | > 25 | 0.213 | > 25 | – | – | 2.39 | 2.32 | 0.853 | 5.51 | 0.848 | 2.21 | 2.81 | 2.7
6 | O=C(N/C(=C\c1cccc([N+](=O)[O-])c1)c1nc2c3c(ccc2[nH]1)C(=O)c1ccccc1C3=O)c1ccccc1 | > 100 | > 100 | – | 78 | > 100 | > 100 | > 100 | > 100 | – | > 100 | – | – | – | – | – | – | – | – | – | –
7 | Cc1cc(C)c([I+]c2c(C)cc(C)cc2C)c(C)c1 | 1.38 | 1.76 | 2.24 | 2.37 | 1.5 | 2.23 | 3.64 | 1.21 | – | – | 0.406 | 2.19 | 0.32 | 0.444 | 0.365 | 1.14 | 0.339 | 0.615 | 0.301 | 1.56
8 | O=C(O)C(Cc1ccccc1)N=Cc1nc(-c2ccccc2)oc1O (stereo unspecified) | > 100 | > 100 | > 100 | > 100 | > 100 | > 100 | > 100 | > 100 | – | > 100 | – | – | – | – | – | – | – | – | – | –
9 | CCCCCCCCCCCCCCCCCC1=NC(C)(C)CN1C(C)(C)CO | 3.03 | 4.54 | 4.88 | 3.51 | 3.46 | 3.02 | 31.2 | 3.25 | – | – | 2.3 | 5.55 | 1.42 | 1.79 | 1.39 | 1.84 | 1.79 | 1.54 | 1.52 | 11.2
10 | CSc1nc2c(nc(N)n2C2OC(CO)C(O)C(O)C2O)c(=O)[nH]1 (stereo unspecified) | > 100 | > 100 | > 100 | > 100 | > 100 | > 100 | > 100 | > 100 | – | > 100 | – | – | – | – | – | – | – | – | – | –
11 | Clc1ccc(-c2nnc(-c3nn(-c4ccccc4)c4nc5ccccc5nc34)o2)cc1 | > 100 | > 100 | 80.8 | > 100 | > 100 | > 100 | – | > 100 | – | – | – | – | – | – | – | – | – | – | – | –
12 | NCCCNCc1c2ccccc2c(CNCCCN)c2ccccc12 | > 100 | > 100 | 46.6 | – | > 100 | 20.2 | 76.8 | 18.5 | – | – | – | – | – | – | – | – | – | – | – | –
13 | C/C(COc1ccc2oc(-c3ccccc3)cc(=O)c2c1)=N\O | 37.2 | > 100 | > 100 | > 100 | 81.4 | > 100 | – | > 100 | – | – | 16.2 | > 100 | 14.4 | 26.7 | 41.4 | > 100 | 16.8 | 24.3 | 24 | –
14 | Oc1ccc(O)c(-n2cccn2)c1 | > 100 | > 100 | 57 | > 100 | > 100 | > 100 | > 100 | > 100 | – | – | – | – | – | – | – | – | – | – | – | –
15 | CC(C)(C)OC(=O)NC(Cc1ccccc1)C(=S)N1CCCC1 (stereo unspecified) | > 100 | > 100 | > 100 | > 100 | > 100 | > 100 | > 100 | > 100 | – | – | – | – | – | – | – | – | – | – | – | –
16 | C=CCN=C1NC(=O)C(CC(=O)Nc2cccc(Cl)c2)S1 (stereo unspecified) | > 100 | > 100 | > 100 | > 100 | > 100 | > 100 | > 100 | > 100 | – | – | – | – | – | – | – | – | – | – | – | –
17 | C/C(=N\NC(=O)c1ccccc1O)c1c(O)cc(C)oc1=O | > 100 | > 100 | – | 86.7 | > 100 | > 100 | > 100 | > 100 | – | – | – | – | – | – | – | – | – | – | – | –
18 | O=C(NC1CCCCC1)NC12CC3CC(CC(F)(C3)C1)C2 | > 100 | > 100 | > 100 | > 100 | > 100 | – | > 100 | – | – | – | – | – | – | – | – | – | – | – | – | –
19 | C=CCC1(CN(C)C)CC/C(=C\c2cc(OC)c(OC)c(OC)c2)C1=O (stereo unspecified) | 59.5 | > 100 | 51.9 | – | 43.1 | 51.6 | 79 | 54.8 | – | 49.1 | – | – | – | – | – | – | – | – | – | –
20 | O=c1cccccc1O | – | > 100 | 82.5 | > 100 | > 100 | > 100 | – | – | – | > 100 | – | > 100 | – | – | – | – | – | – | – | –
21 | CCCC(=O)Oc1ccc(/C=N/NC(N)=S)nc1 | > 100 | > 100 | > 100 | > 100 | > 100 | > 100 | > 100 | > 100 | – | > 100 | – | – | – | – | – | – | – | – | – | –
